Literature values, collected in patent US11318113B2, “Compounds for the treatment of diseases linked to mitochondrial reactive oxygen species (ROS) production” (OP2 DRUGS, priority 2015, dated 2022).

Tested on: complex I
Conditions: Orr et al., 2013; cited from earlier work

O=[N+]([O-])c1ccc(Oc2ccc(S(=O)(=O)NC3CCCCC3)cc2)cc1 [N-cyclohexyl-4-(4-nitrophenoxy) benzenesulfonamide]
activity of complex I as a component of the respiratory chain and oxidative phosphorylation: does not modify
